Assays:
Type in all cases: in vivo
[1] = test system: Salsola kali (Russian thistle), SASKR; experiment: Greenhouse postemergence trial, visual injury on Russian thistle
Protocol: (§1) Greenhouse Trial Methodology-Evaluation of Postemergence Herbicidal […] in Crops […] When required to ensure good germination and healthy plants, a fungicide treatment and/or other chemical or physical treatment was applied. The plants were grown for 7-36 days (d) in a greenhouse with an approximate 14-hour (h) photoperiod which was maintained at about 23° C. during the day and 22° C. during the night. Nutrients and water were added on a regular basis and supplemental lighting was provided with overhead metal halide 1000-Watt lamps as necessary. The plants were employed for testing when they reached the second or third true leaf stage. Emulsifiable concentrates of each of each pyridine carboxylate herbicide (Compound A or Compound B) were prepared at 100 grams acid equivalent per liter (g ae/L). […] The concentrated stock solutions were further diluted with an aqueous mixture of 1.25% […] or MSO® Concentrate with LECI-TECH® to obtain stock solutions at reduced application rates for each herbicide. Spray solutions of the herbicide combinations (Compound A or Compound B plus safener) were prepared by adding weighed amounts or aliquots of the safener to the stock solutions of Compound A or Compound B to form 12-mL spray solutions in two-way combinations. […] Control plants were sprayed in the same manner with the solvent blank. All herbicide (component a) application rates are given as “g ae/ha” and all safener (component b) application rates are given as “g ai/ha.” The treated plants and control plants were placed in a greenhouse as described above and watered by sub-irrigation to prevent wash-off of the test compounds.

[2] = test system: Canada horseweed (ERICA, Erigeron canadensis); experiment: Greenhouse postemergence trial, visual injury on Canada horseweed; conditions: Table 19
Excerpt: (§2) Greenhouse Trial Methodology—Evaluation of Postemergence Herbicidal Safening in Crops
(§3) Seeds of the desired test plant species were planted in a 90:10% v/v (volume/volume) mixture of PRO-MIX® BX (Premier Tech Horticulture, Quakertown, PA, USA) and PROFILE® GREENS GRADE™ (Profile Products LLC, Buffalo Grove, IL, USA) planting mixture, which typically has a pH of 5.2 to 6.2 and an organic matter content of at least 50 percent, in plastic pots with a surface area of 103.2 square centimeters (cm^2). When required to ensure good germination and healthy plants, a fungicide treatment and/or other chemical or physical treatment was applied. The plants were grown for 7-36 days (d) in a greenhouse with an approximate 14-hour (h) photoperiod which was maintained at about 23° C. during the day and 22° C. during the night. Nutrients and water were added on a regular basis and supplemental lighting was provided with overhead metal halide 1000-Watt lamps as necessary. The plants were employed for testing when they reached the second or third true leaf stage.
(§4) Emulsifiable concentrates of each of each pyridine carboxylate herbicide (Compound A or Compound B) were prepared at 100 grams acid equivalent per liter (g ae/L). An aliquot of each emulsifiable concentrate was placed in a 25 mL glass vial and diluted with an aqueous mixture of 1.25% (v/v) ACTIROB® B esterified rapeseed oil (Bayer Crop Science, Research Triangle Park, NC, USA) or MSO® Concentrate with LECI-TECH® methylated soybean oil (Loveland Products, Loveland, CO, USA) to obtain concentrated stock solutions at the highest application rate for each herbicide, based upon a 12 milliliter (mL) application volume at a rate of 187 liters per hectare (L/ha). The concentrated stock solutions were further diluted with an aqueous mixture of 1.25% v/v ACTIROB® B or MSO® Concentrate with LECI-TECH® to obtain stock solutions at reduced application rates for each herbicide. Spray solutions of the herbicide combinations (Compound A or Compound B plus safener) were prepared by adding weighed amounts or aliquots of the safener to the stock solutions of Compound A or Compound B to form 12-mL spray solutions in two-way combinations. […]
(§5) The treated plants and control plants were placed in a greenhouse as described above and watered by sub-irrigation to prevent wash-off of the test compounds. After 20-22 d, the condition of the test plants as compared with that of the control plants was determined visually and scored on a scale of 0 to 100 percent where 0 corresponds to no injury and 100 corresponds to complete kill.

[3] = test system: Anthemis arvensis (field chamomile), ANTAR; experiment: Greenhouse postemergence trial, visual injury on field chamomile; conditions: Table 15
Excerpt: as §2, §3
(§6) Emulsifiable concentrates of each of each pyridine carboxylate herbicide (Compound A or Compound B) were prepared at 100 grams acid equivalent per liter (g ae/L). An aliquot of each emulsifiable concentrate was placed in a 25 mL glass vial and diluted with an aqueous mixture of 1.25% (v/v) ACTIROB® B esterified rapeseed oil (Bayer Crop Science, Research Triangle Park, NC, USA) or MSO® Concentrate with LECI-TECH® methylated soybean oil (Loveland Products, Loveland, CO, USA) to obtain concentrated stock solutions at the highest application rate for each herbicide, based upon a 12 milliliter (mL) application volume at a rate of 187 liters per hectare (L/ha). The concentrated stock solutions were further diluted with an aqueous mixture of 1.25% v/v ACTIROB® B or MSO® Concentrate with LECI-TECH® to obtain stock solutions at reduced application rates for each herbicide. Spray solutions of the herbicide combinations (Compound A or Compound B plus safener) were prepared by adding weighed amounts or aliquots of the safener to the stock solutions of Compound A or Compound B to form 12-mL spray solutions in two-way combinations.
(§7) The spray solutions were applied to the plant material with an overhead Mandel track sprayer equipped with 8002E nozzles calibrated to deliver 187 L/ha over an application area of 0.503 square meters (m^2) at a spray height of 18 inches (43 centimeters (cm)) above the average plant canopy. Control plants were sprayed in the same manner with the solvent blank. All herbicide (component a) application rates are given as “g ae/ha” and all safener (component b) application rates are given as “g ai/ha.”
as §5

[4] = test system: ivyleaf morningglory (IPOHE, Ipomoea hederacea); experiment: Greenhouse postemergence trial, visual injury on ivyleaf morningglory; conditions: Table 19
Excerpt: as §2, §3, §4, §5

[5] = test system: Hordeum vulgare (winter barley), HORVW; experiment: Greenhouse postemergence safening trial, visual injury on winter barley
Protocol: as §1

[6] = test system: Chinese sprangletop (LEFCH, Leptochloa chinensis); experiment: Greenhouse postemergence trial, visual injury on Chinese sprangletop; conditions: Table 19
Excerpt: as §2, §3, §4, §5

[7] = test system: Matricaria inodora (false chamomile), MATIN; experiment: Greenhouse postemergence trial, visual injury on false chamomile; conditions: Table 16
Excerpt: as §2, §3, §6, §7, §5

[8] = test system: Hordeum vulgare (spring barley), HORVS; experiment: Greenhouse postemergence safening trial, visual injury on spring barley
Protocol: as §1

[9] = test system: pigweed (AMARE, Amaranthus retroflexus); experiment: Greenhouse postemergence trial, visual injury on pigweed
Excerpt: as §2, §3, §6, §7, §5

[10] = test system: Johnson grass (SORHA, Sorghum halepense); experiment: Greenhouse postemergence trial, visual injury on Johnson grass; conditions: Table 19
Excerpt: as §2, §3, §4, §5

[11] = test system: rice (ORYSA); experiment: Greenhouse postemergence safening trial, visual injury on rice; conditions: Table 19
Excerpt: as §2, §3, §4, §5

[12] = CQC-mexyl 5 g/ha alone, Table 15
[13] = CQC-mexyl 10 g/ha alone, Table 15
[14] = CQC-mexyl 10 g/ha alone, Table 16
[15] = CQC-mexyl 20 g/ha alone, Table 15
[16] = CQC-mexyl 20 g/ha alone, Table 16
[17] = CQC-mexyl 40 g/ha alone, Table 14
[18] = CQC-mexyl 40 g/ha alone, Table 15
[19] = CQC-mexyl 40 g/ha alone, Table 16
[20] = CQC-mexyl 80 g/ha alone, Table 16

CCCCCC(C)OC(=O)COc1ccc(Cl)c2cccnc12 (centres unmarked) [CQC-mexyl, cloquintocet-mexyl]
0%: % visual injury, Ob ([1]; safener alone 5 g/ha) | % visual injury, Ob ([1]; safener alone 10 g/ha) | % visual injury, Ob ([1]; safener alone 20 g/ha) | % visual injury, Ob ([1]; safener alone 40 g/ha) | % visual injury, Ob ([2]; CQC-mexyl 20 g/ha alone) | % visual injury, Ob ([2]; CQC-mexyl 40 g/ha alone) | % visual injury, Ob ([2]; CQC-mexyl 80 g/ha alone) | % visual injury, Ob ([3]; CQC-mexyl 5 g/ha alone) | % visual injury, Ob ([3]; CQC-mexyl 10 g/ha alone) | % visual injury, Ob ([3]; CQC-mexyl 20 g/ha alone) | % visual injury, Ob ([3]; CQC-mexyl 40 g/ha alone) | % visual injury, Ob ([4]; CQC-mexyl 20 g/ha alone) | % visual injury, Ob ([4]; CQC-mexyl 40 g/ha alone) | % visual injury, Ob ([4]; CQC-mexyl 80 g/ha alone) | % visual injury, Ob [5, 12] | % visual injury, Ob [5, 13] | % visual injury, Ob [5, 14] | % visual injury, Ob [5, 15] | % visual injury, Ob [5, 16] | % visual injury Δ [5, 17] | % visual injury, Ob [5, 17] | % visual injury, Ob [5, 18] | % visual injury, Ob [5, 19] | % visual injury, Ob [5, 20] | % visual injury Δ ([5]; safener alone 40 g/ha) | % visual injury, Ob ([5]; safener alone 40 g/ha) | % visual injury, Ob ([6]; CQC-mexyl 20 g/ha alone) | % visual injury, Ob ([6]; CQC-mexyl 40 g/ha alone) | % visual injury, Ob ([6]; CQC-mexyl 80 g/ha alone) | % visual injury, Ob ([7]; CQC-mexyl 10 g/ha alone) | % visual injury, Ob ([7]; CQC-mexyl 20 g/ha alone) | % visual injury, Ob ([7]; CQC-mexyl 40 g/ha alone) | % visual injury, Ob ([7]; CQC-mexyl 80 g/ha alone) | % visual injury, Ob [8, 12] | % visual injury, Ob [8, 13] | % visual injury, Ob [8, 14] | % visual injury, Ob [8, 15] | % visual injury, Ob [8, 16] | % visual injury, Ob [8, 17] | % visual injury, Ob [8, 18] | % visual injury, Ob [8, 19] | % visual injury, Ob [8, 20] | % visual injury, Ob ([8]; safener alone 5 g/ha) | % visual injury, Ob ([8]; safener alone 10 g/ha) | % visual injury, Ob ([8]; safener alone 20 g/ha) | % visual injury, Ob ([8]; safener alone 40 g/ha) | % visual injury, Ob ([9]; CQC-mexyl 20 g/ha alone, Table 17) | % visual injury, Ob ([9]; CQC-mexyl 20 g/ha alone, Table 19) | % visual injury, Ob ([9]; CQC-mexyl 40 g/ha alone, Table 17) | % visual injury, Ob ([9]; CQC-mexyl 40 g/ha alone, Table 19) | % visual injury, Ob ([9]; CQC-mexyl 80 g/ha alone, Table 17) | % visual injury, Ob ([9]; CQC-mexyl 80 g/ha alone, Table 19) | % visual injury, Ob ([9]; CQC-mexyl 120 g/ha alone, Table 17) | % visual injury, Ob ([10]; CQC-mexyl 20 g/ha alone) | % visual injury, Ob ([10]; CQC-mexyl 40 g/ha alone) | % visual injury, Ob ([10]; CQC-mexyl 80 g/ha alone) | % visual injury, Ob ([11]; CQC-mexyl 20 g/ha alone) | % visual injury, Ob ([11]; CQC-mexyl 40 g/ha alone) | % visual injury, Ob ([11]; CQC-mexyl 80 g/ha alone)
